Results from PubChem BioAssay AID1963971 (Molecular Pharmacology Branch, DTP, NCI, 2024).
pIC50: −log10 of the molar value.

System: 953936-095-R-J2-PDC spheroids with HUVEC/MSC, viability
Test: Anticancer human tumor 953936-095-R-J2-PDC patient-derived cervical squamous cell carcinoma cell line growth inhibition [PI3K]
Conditions: for pIC50: curve of first compound; for viability, T/C: stronger effect = lower value
Method in brief: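 Stroma-containing spheroids: tumor line, pooled-donor HUVEC, hMSC. Treatments: targeted agents with PI3K inhibitors. Dosing: clinically relevant, half-log spacing, 10 microM ceiling without known Cmax. Read-out: cell viability.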

[1] = second compound 0.00316 µM, first compound 0.0316 µM
[2] = second compound 0.00316 µM, first compound 0.1 µM
[3] = second compound 0.01 µM, first compound 0.0316 µM
[4] = second compound 0.01 µM, first compound 0.1 µM
[5] = second compound 0.0316 µM, first compound 0.0316 µM
[6] = second compound 0.0316 µM, first compound 0.1 µM
[7] = second compound 0.1 µM, first compound 0.0316 µM
[8] = second compound 0.1 µM, first compound 0.1 µM
[9] = second compound 0.316 µM, first compound 0.0316 µM
[10] = second compound 0.316 µM, first compound 0.1 µM
[11] = second compound 1 µM, first compound 0.0316 µM
[12] = second compound 1 µM, first compound 0.1 µM
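Also: spheroids exposed to compounds for seven days before read-out.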

CC(C)n1nc(-c2ccc3oc(N)nc3c2)c2c(N)ncnc21 + COc1c(OCCCN2CCOCC2)ccc2c3n(c(=NC(=O)c4cnc(N)nc4)nc12)CCN3
pIC50 (second compound 0.00316 µM): 7.72
pIC50 (second compound 0.01 µM): 7.99
pIC50 (second compound 0.0316 µM): > 9.50
pIC50 (second compound 0.1 µM): > 9.50
pIC50 (second compound 0.316 µM): > 9.50
pIC50 (second compound 1 µM): > 9.50
viability, T/C (second compound 0.00316 µM, first compound 0.000316 µM): 79%
viability, T/C (second compound 0.00316 µM, first compound 0.001 µM): 86.9%
viability, T/C (second compound 0.00316 µM, first compound 0.00316 µM): 84%
viability, T/C (second compound 0.00316 µM, first compound 0.01 µM): 60.3%
viability, T/C [1]: 40.3%
viability, T/C [2]: 14.4%
viability, T/C (second compound 0.01 µM, first compound 0.000316 µM): 66.7%
viability, T/C (second compound 0.01 µM, first compound 0.001 µM): 64.8%
viability, T/C (second compound 0.01 µM, first compound 0.00316 µM): 60.1%
viability, T/C (second compound 0.01 µM, first compound 0.01 µM): 51.5%
viability, T/C [3]: 27.8%
viability, T/C [4]: 11.2%
viability, T/C (second compound 0.0316 µM, first compound 0.000316 µM): 38.8%
viability, T/C (second compound 0.0316 µM, first compound 0.001 µM): 36%
viability, T/C (second compound 0.0316 µM, first compound 0.00316 µM): 31.5%
viability, T/C (second compound 0.0316 µM, first compound 0.01 µM): 23.5%
viability, T/C [5]: 16.2%
viability, T/C [6]: 7.15%
viability, T/C (second compound 0.1 µM, first compound 0.000316 µM): 18.2%
viability, T/C (second compound 0.1 µM, first compound 0.001 µM): 15.9%
viability, T/C (second compound 0.1 µM, first compound 0.00316 µM): 14.9%
viability, T/C (second compound 0.1 µM, first compound 0.01 µM): 11.2%
viability, T/C [7]: 8.1%
viability, T/C [8]: 4.33%
viability, T/C (second compound 0.316 µM, first compound 0.000316 µM): 6.68%
viability, T/C (second compound 0.316 µM, first compound 0.001 µM): 6.67%
viability, T/C (second compound 0.316 µM, first compound 0.00316 µM): 5.27%
viability, T/C (second compound 0.316 µM, first compound 0.01 µM): 4.78%
viability, T/C [9]: 3.56%
viability, T/C [10]: 2.2%
viability, T/C (second compound 1 µM, first compound 0.000316 µM): 1.45%
viability, T/C (second compound 1 µM, first compound 0.001 µM): 1.56%
viability, T/C (second compound 1 µM, first compound 0.00316 µM): 1.21%
viability, T/C (second compound 1 µM, first compound 0.01 µM): 1.41%
viability, T/C [11]: 1.36%
viability, T/C [12]: 1.27%

CC(C)NCC(C(=O)N1CCN(c2ncnc3c2C(C)CC3O)CC1)c1ccc(Cl)cc1 (centres undefined) + CC(Nc1ccc2c(c1)OCCn1cc(N3C(=O)OCC3C(F)F)nc1-2)C(N)=O
pIC50 (second compound 0.00316 µM): 6.05
pIC50 (second compound 0.01 µM): 6.06
pIC50 (second compound 0.0316 µM): 6.19
pIC50 (second compound 0.1 µM): 6.75
pIC50 (second compound 0.316 µM): > 7.50
pIC50 (second compound 1 µM): > 7.50
viability, T/C [1]: 89.5%
viability, T/C [2]: 88.2%
viability, T/C (second compound 0.00316 µM, first compound 0.316 µM): 73.9%
viability, T/C (second compound 0.00316 µM, first compound 1 µM): 48%
viability, T/C (second compound 0.00316 µM, first compound 3.16 µM): 22.5%
viability, T/C (second compound 0.00316 µM, first compound 10 µM): 15.1%
viability, T/C [3]: 87%
viability, T/C [4]: 86.1%
viability, T/C (second compound 0.01 µM, first compound 0.316 µM): 71.3%
viability, T/C (second compound 0.01 µM, first compound 1 µM): 48.3%
viability, T/C (second compound 0.01 µM, first compound 3.16 µM): 20.9%
viability, T/C (second compound 0.01 µM, first compound 10 µM): 14.1%
viability, T/C [5]: 79.1%
viability, T/C [6]: 76%
viability, T/C (second compound 0.0316 µM, first compound 0.316 µM): 63.5%
viability, T/C (second compound 0.0316 µM, first compound 1 µM): 42%
viability, T/C (second compound 0.0316 µM, first compound 3.16 µM): 18.4%
viability, T/C (second compound 0.0316 µM, first compound 10 µM): 11.4%
viability, T/C [7]: 57.2%
viability, T/C [8]: 55%
viability, T/C (second compound 0.1 µM, first compound 0.316 µM): 45.5%
viability, T/C (second compound 0.1 µM, first compound 1 µM): 31.2%
viability, T/C (second compound 0.1 µM, first compound 3.16 µM): 18.6%
viability, T/C (second compound 0.1 µM, first compound 10 µM): 9.8%
viability, T/C [9]: 35.8%
viability, T/C [10]: 33.9%
viability, T/C (second compound 0.316 µM, first compound 0.316 µM): 30.6%
viability, T/C (second compound 0.316 µM, first compound 1 µM): 23.6%
viability, T/C (second compound 0.316 µM, first compound 3.16 µM): 13%
viability, T/C (second compound 0.316 µM, first compound 10 µM): 9.25%
viability, T/C [11]: 23%
viability, T/C [12]: 22.3%
viability, T/C (second compound 1 µM, first compound 0.316 µM): 19.3%
viability, T/C (second compound 1 µM, first compound 1 µM): 15.4%
viability, T/C (second compound 1 µM, first compound 3.16 µM): 14%
viability, T/C (second compound 1 µM, first compound 10 µM): 7.62%
